Data set [1] can be described thus: physchem.
Data set [2] can be described thus: physchem. The conditions noted are these: 0.01N HCl, simulated gastric fluid.
Data set [3] is described as follows: Selection of surfactants: API solubility with different surfactants. The conditions noted are these: solubility not done, observation.
The conditions of data set [4]: cited from earlier work.

SMILES strings stand for the structures. Converted amounts (≈) assume the structure as drawn. Counter-ions that a name gives are not always drawn.

Turning to `Cc1cn(-c2cc(NC(=O)c3ccc(C)c(Nc4nccc(-c5cccnc5)n4)c3)cc(C(F)(F)F)c2)cn1` [API, Nilotinib Hydrochloride Monohydrate], the solubility in “physchem [1]” is 0.2 µg/mL; in the data set “physchem [1]” (poloxamer 188 solution, 100 mg/ml, aqueous with cosolvent or surfactant or cyclodextrin) it was 321 µg/mL; in “physchem [1]” (poloxamer 407 solution, 10 mg/ml, aqueous with cosolvent or surfactant or cyclodextrin) it was 227 µg/mL; in “physchem [1]” (polysorbate 20 solution, 5 mg/ml, aqueous with cosolvent or surfactant or cyclodextrin), 478 µg/mL; in the data set “physchem [2]”, 494 µg/mL; in data set [3] (SLS, 5 mg/ml), “Not done (Large lump formed”. Besides, the solubility entry in data set [3] (Span 80, 150 ml/ml) was “Not done (phase separation observed”.

In the case of `Cc1cn(-c2cc(NC(=O)c3ccc(C)c(Nc4nccc(-c5cccnc5)n4)c3)cc(C(F)(F)F)c2)cn1` [Nilotinib, 4-Methyl-3-[[4-(3-pyridinyl)-2-pyrimidinyl]amino]-N-[5-(4-methyl-1H-imidazol-1-yl)-3-(trifluoromethyl)phenyl] benzamide], the “solubility in alcohol (descriptive)” value in data set [4] (alcohol) is “slightly soluble”. In data set [4] (water), the solubility in water was 0.2 µg/mL (≈ 0.378 µM) and the “solubility in water (descriptive)” value was “very slightly soluble”.

Values taken from patent US20260207592A1, “PHARMACEUTICAL SUSPENSION OF NILOTINIB” (RENATA PHARMACEUTICALS (IRELAND) LIMITED, priority 2022, published 2026).
